Assay results reported in ChEMBL document CHEMBL1649315, “Extended-spectrum cephalosporinase in Acinetobacter baumannii” (Antimicrob Agents Chemother, 2010).
Values after ≈ are worked out from the molar mass of the structure shown.

Tests used:
Acinetobacter baumannii [1] = experiment: Antimicrobial activity against Acinetobacter baumannii CIP70.10 by Etest method; assay type: functional
Escherichia coli [2] = experiment: Antimicrobial activity against Escherichia coli TOP10 harboring pADC-11 plasmid by Etest method; assay type: functional
Escherichia coli [3] = experiment: Antimicrobial activity against Escherichia coli TOP10 harboring pADC-11 plasmid with entire blaAmpC gene by Etest method; assay type: functional
Escherichia coli [4] = experiment: Antimicrobial activity against Escherichia coli TOP10 harboring pADC-33 plasmid carrying entire blaAmpC gene with alanine residue deletion at 215 position and R210P substitution by Etest method; assay type: functional
Escherichia coli [5] = experiment: Antimicrobial activity against Escherichia coli TOP10 harboring pADC-11 plasmid carrying entire blaAmpC gene with alanine residue insertion at 215 position by Etest method; assay type: functional
Escherichia coli [6] = experiment: Antimicrobial activity against Escherichia coli TOP10 harboring pADC-50 plasmid by Etest method; assay type: functional
Acinetobacter baumannii [7] = experiment: Antimicrobial activity against Acinetobacter baumannii AYE expressing VEB-1 gene by Etest method; assay type: functional
Escherichia coli [8] = experiment: Antimicrobial activity against Escherichia coli TOP10 harboring pADC-33 plasmid with entire blaAmpC gene by Etest method; assay type: functional
Escherichia coli [9] = experiment: Antimicrobial activity against Escherichia coli TOP10 harboring pADC-33 plasmid by Etest method; assay type: functional
Escherichia coli [10] = experiment: Antimicrobial activity against Escherichia coli TOP10 harboring pADC-11 plasmid carrying entire blaAmpC gene with alanine residue insertion at 215 position and R210P substitution by Etest method; assay type: functional
Escherichia coli [11] = experiment: Antimicrobial activity against Escherichia coli TOP10 harboring pADC-33 plasmid with entire blaAmpC gene with alanine residue deletion at 215 position by Etest method; assay type: functional
Escherichia coli [12] = experiment: Antimicrobial activity against Escherichia coli TOP10 harboring pTOPO plasmid by Etest method; assay type: functional
Acinetobacter baumannii [13] = experiment: Antimicrobial activity against Acinetobacter baumannii KI by Etest method; assay type: functional
Acinetobacter baumannii [14] = experiment: Ratio of Kcat to Km for Acinetobacter baumannii ADC-33 beta-lactamase to Kcat to Km for Acinetobacter baumannii ADC-11 beta-lactamase
[15] = test system: O=C(Cc1cccs1)N[C@@H]1C(=O)N2C(C(=O)[O-])=C(C[n+]3ccccc3)CS[C@H]12; experiment: (§1) Activity of Acinetobacter baumannii ADC-33 beta-lactamase
[16] = test system: CC1(C)S[C@@H]2[C@H](NC(=O)Cc3ccccc3)C(=O)N2[C@H]1C(=O)O; experiment: as §1
[17] = test system: CC(=O)OCC1=C(C(=O)O)N2C(=O)[C@@H](NC(=O)Cc3cccs3)[C@H]2SC1; experiment: as §1
[18] = test system: CO[C@@]1(NC(=O)Cc2cccs2)C(=O)N2C(C(=O)O)=C(COC(N)=O)CS[C@@H]21; experiment: as §1
[19] = test system: CC(C)(O/N=C(\C(=O)N[C@@H]1C(=O)N2C(C(=O)[O-])=C(C[n+]3ccccc3)CS[C@H]12)c1csc(N)n1)C(=O)O; experiment: as §1
[20] = test system: CC1(C)S[C@@H]2[C@H](NC(=O)[C@H](N)c3ccccc3)C(=O)N2[C@H]1C(=O)O; experiment: as §1
[21] = test system: CCN1CCN(C(=O)N[C@@H](C(=O)N[C@@H]2C(=O)N3[C@@H]2SC(C)(C)[C@@H]3C(=O)O)c2ccccc2)C(=O)C1=O; experiment: as §1
[22] = test system: CO/N=C(\C(=O)N[C@@H]1C(=O)N2C(C(=O)[O-])=C(C[n+]3cccc4c3CCC4)CS[C@H]12)c1csc(N)n1; experiment: as §1
[23] = test system: O=C(Cc1cccs1)N[C@@H]1C(=O)N2C(C(=O)[O-])=C(C[n+]3ccccc3)CS[C@H]12; experiment: (§2) Ratio of Kcat to Km for Acinetobacter baumannii ADC-33 beta-lactamase
[24] = test system: CC1(C)S[C@@H]2[C@H](NC(=O)Cc3ccccc3)C(=O)N2[C@H]1C(=O)O; experiment: as §2
[25] = test system: CC(=O)OCC1=C(C(=O)O)N2C(=O)[C@@H](NC(=O)Cc3cccs3)[C@H]2SC1; experiment: as §2
[26] = test system: CC1(C)S[C@@H]2[C@H](NC(=O)[C@H](N)c3ccccc3)C(=O)N2[C@H]1C(=O)O; experiment: as §2
[27] = test system: CCN1CCN(C(=O)N[C@@H](C(=O)N[C@@H]2C(=O)N3[C@@H]2SC(C)(C)[C@@H]3C(=O)O)c2ccccc2)C(=O)C1=O; experiment: as §2
[28] = test system: CO/N=C(\C(=O)N[C@@H]1C(=O)N2C(C(=O)[O-])=C(C[n+]3cccc4c3CCC4)CS[C@H]12)c1csc(N)n1; experiment: as §2
[29] = test system: CO[C@@]1(NC(=O)Cc2cccs2)C(=O)N2C(C(=O)O)=C(COC(N)=O)CS[C@@H]21; experiment: (§3) Ratio of Kcat to Ki for Acinetobacter baumannii ADC-33 beta-lactamase
[30] = test system: CO/N=C(\C(=O)N[C@@H]1C(=O)N2C(C(=O)O)=C(COC(C)=O)CS[C@H]12)c1csc(N)n1; experiment: as §3
Beta-lactamase ADC-33 = Beta-lactamase ADC-33 (Acinetobacter baumannii, UniProt B2ZTR6); experiment: as §1
Acinetobacter baumannii [31] = experiment: Antimicrobial activity against Acinetobacter baumannii expressing ESAC beta-lactamase by Etest method; assay type: functional
ADC-11 = ADC-11 (Acinetobacter baumannii, UniProt D6NSM8); experiment: Activity of Acinetobacter baumannii ADC-11 beta-lactamase
Acinetobacter baumannii [32] = experiment: Antimicrobial activity against Acinetobacter baumannii beta-lactamase by Etest method; assay type: functional

Compound: C[C@@H](O)[C@H]1C(=O)N2C(C(=O)O)=C(S[C@@H]3CN[C@H](C(=O)N(C)C)C3)[C@H](C)[C@H]12 [MEROPENEM]
- MIC (Acinetobacter baumannii [1]): 0.25 µg/mL (≈ 0.652 µM)
- MIC (Escherichia coli [2]): 0.023 µg/mL (≈ 0.06 µM)
- MIC (Escherichia coli [3]): 0.032 µg/mL (≈ 0.0834 µM)
- MIC (Escherichia coli [4]): 0.032 µg/mL (≈ 0.0834 µM)
- MIC (Escherichia coli [5]): 0.032 µg/mL (≈ 0.0834 µM)
- MIC (Escherichia coli [6]): 0.023 µg/mL (≈ 0.06 µM)
- MIC (Acinetobacter baumannii [7]): 1 µg/mL (≈ 2.61 µM)
- MIC (Escherichia coli [8]): 0.032 µg/mL (≈ 0.0834 µM)
- MIC (Escherichia coli [9]): 0.023 µg/mL (≈ 0.06 µM)
- MIC (Escherichia coli [10]): 0.032 µg/mL (≈ 0.0834 µM)
- MIC (Escherichia coli [11]): 0.032 µg/mL (≈ 0.0834 µM)
- MIC (Escherichia coli [12]): 0.023 µg/mL (≈ 0.06 µM)
- MIC (Acinetobacter baumannii [13]): 2 µg/mL (≈ 5.22 µM)

Compound: CC(=O)OCC1=C(C(=O)O)N2C(=O)[C@@H](NC(=O)Cc3cccs3)[C@H]2SC1
- kcat/Km (Acinetobacter baumannii [14]): 500000 M⁻¹ s⁻¹

Compound: Beta-lactamase ADC-33 (Acinetobacter baumannii) (from UniProt B2ZTR6)
- Km [15]: 100 µM
- kcat [15]: 220 s⁻¹
- Km [16]: 3 µM
- Km [17]: 120 µM
- kcat [17]: 140 s⁻¹
- kcat [18]: 0.3 s⁻¹
- Km [19]: 30 µM
- kcat [19]: 4 s⁻¹
- Km [20]: 9 µM
- kcat [20]: 4 s⁻¹
- Km [21]: 16 µM
- kcat [21]: 4 s⁻¹
- Km [22]: 700 µM
- kcat [22]: 35 s⁻¹
- kcat/Km [23]: 2e+06 M⁻¹ s⁻¹
- kcat/Km [24]: 5e+06 M⁻¹ s⁻¹
- kcat/Km [25]: 1e+06 M⁻¹ s⁻¹
- kcat/Km [26]: 500000 M⁻¹ s⁻¹
- kcat/Km [27]: 250000 M⁻¹ s⁻¹
- kcat/Km [28]: 50000 M⁻¹ s⁻¹
- kcat/Km [29]: 3e+06 M⁻¹ s⁻¹
- kcat/Km [30]: 2e+06 M⁻¹ s⁻¹

Compound: CC1(C)S[C@@H]2[C@H](NC(=O)[C@H](N)c3ccccc3)C(=O)N2[C@H]1C(=O)O
- kcat/Km (Acinetobacter baumannii [14]): 500000 M⁻¹ s⁻¹

Compound: C[C@H]1[C@H](NC(=O)/C(=N\OC(C)(C)C(=O)O)c2csc(N)n2)C(=O)N1S(=O)(=O)O [AZTREONAM]
- MIC (Acinetobacter baumannii [1]): 8 µg/mL (≈ 18.4 µM)
- Ki (Beta-lactamase ADC-33): 7 nM
- MIC (Escherichia coli [2]): 0.094 µg/mL (≈ 0.216 µM)
- MIC (Escherichia coli [3]): 2 µg/mL (≈ 4.59 µM)
- MIC (Escherichia coli [4]): 2 µg/mL (≈ 4.59 µM)
- MIC (Acinetobacter baumannii [31]): > 256 µg/mL
- MIC (Escherichia coli [5]): 16 µg/mL (≈ 36.7 µM)
- Ki (ADC-11): 3000 nM
- MIC (Acinetobacter baumannii [7]): > 256 µg/mL
- MIC (Escherichia coli [8]): 256 µg/mL (≈ 588 µM)
- MIC (Acinetobacter baumannii [32]): 12 µg/mL (≈ 27.6 µM)
- MIC (Escherichia coli [9]): 8 µg/mL (≈ 18.4 µM)
- MIC (Escherichia coli [10]): 256 µg/mL (≈ 588 µM)
- MIC (Escherichia coli [11]): 6 µg/mL (≈ 13.8 µM)
- MIC (Acinetobacter baumannii [13]): 256 µg/mL (≈ 588 µM)

Compound: CO/N=C(\C(=O)N[C@@H]1C(=O)N2C(C(=O)[O-])=C(C[n+]3cccc4c3CCC4)CS[C@H]12)c1csc(N)n1 [CEFPIROME]
- MIC (Acinetobacter baumannii [1]): 2 µg/mL (≈ 3.89 µM)
- MIC (Escherichia coli [2]): 0.032 µg/mL (≈ 0.0622 µM)
- MIC (Escherichia coli [3]): 0.125 µg/mL (≈ 0.243 µM)
- MIC (Escherichia coli [4]): 0.125 µg/mL (≈ 0.243 µM)
- MIC (Acinetobacter baumannii [31]): 128 µg/mL (≈ 249 µM)
- kcat/Km (Acinetobacter baumannii [14]): 1.25e+07 M⁻¹ s⁻¹
- MIC (Escherichia coli [5]): 2 µg/mL (≈ 3.89 µM)
- MIC (Escherichia coli [6]): 0.047 µg/mL (≈ 0.0913 µM)
- MIC (Acinetobacter baumannii [7]): > 256 µg/mL
- MIC (Escherichia coli [8]): 4 µg/mL (≈ 7.77 µM)
- MIC (Acinetobacter baumannii [32]): 4 µg/mL (≈ 7.77 µM)
- MIC (Escherichia coli [9]): 0.5 µg/mL (≈ 0.972 µM)
- MIC (Escherichia coli [10]): 8 µg/mL (≈ 15.5 µM)
- MIC (Escherichia coli [11]): 0.5 µg/mL (≈ 0.972 µM)
- MIC (Escherichia coli [12]): 0.023 µg/mL (≈ 0.0447 µM)
- MIC (Acinetobacter baumannii [13]): > 256 µg/mL

Compound: CO/N=C(\C(=O)N[C@@H]1C(=O)N2C(C(=O)[O-])=C(C[N+]3(C)CCCC3)CS[C@H]12)c1csc(N)n1
- MIC (Acinetobacter baumannii [1]): 1 µg/mL (≈ 2.08 µM)
- MIC (Escherichia coli [2]): 0.032 µg/mL (≈ 0.0666 µM)
- MIC (Escherichia coli [3]): 0.125 µg/mL (≈ 0.26 µM)
- MIC (Escherichia coli [4]): 0.125 µg/mL (≈ 0.26 µM)
- MIC (Acinetobacter baumannii [31]): 32 µg/mL (≈ 66.6 µM)
- kcat/Km (Acinetobacter baumannii [14]): 2e+07 M⁻¹ s⁻¹
- MIC (Escherichia coli [5]): 0.5 µg/mL (≈ 1.04 µM)
- MIC (Escherichia coli [6]): 0.032 µg/mL (≈ 0.0666 µM)
- MIC (Acinetobacter baumannii [7]): > 256 µg/mL
- MIC (Escherichia coli [8]): 1 µg/mL (≈ 2.08 µM)
- MIC (Acinetobacter baumannii [32]): 2 µg/mL (≈ 4.16 µM)
- MIC (Escherichia coli [9]): 0.125 µg/mL (≈ 0.26 µM)
- MIC (Escherichia coli [11]): 0.25 µg/mL (≈ 0.52 µM)
- MIC (Acinetobacter baumannii [13]): 256 µg/mL (≈ 533 µM)

Compound: CO/N=C(\C(=O)N[C@@H]1C(=O)N2C(C(=O)O)=C(COC(N)=O)CS[C@H]12)c1ccco1 [CEFUROXIME]
- MIC (Acinetobacter baumannii [1]): 32 µg/mL (≈ 75.4 µM)
- MIC (Escherichia coli [2]): 128 µg/mL (≈ 302 µM)
- MIC (Escherichia coli [3]): > 256 µg/mL
- MIC (Escherichia coli [4]): > 256 µg/mL
- MIC (Escherichia coli [5]): > 256 µg/mL
- MIC (Escherichia coli [6]): 64 µg/mL (≈ 151 µM)
- MIC (Acinetobacter baumannii [7]): > 256 µg/mL
- MIC (Escherichia coli [8]): > 256 µg/mL
- MIC (Escherichia coli [9]): > 256 µg/mL
- MIC (Escherichia coli [10]): > 256 µg/mL
- MIC (Escherichia coli [11]): > 256 µg/mL
- MIC (Escherichia coli [12]): 2 µg/mL (≈ 4.71 µM)
- MIC (Acinetobacter baumannii [13]): > 256 µg/mL
